# Source: patent US20090252778A1, “METHODS AND DEVICES FOR REDUCING TISSUE DAMAGE AFTER ISCHEMIC INJURY” (INNOVATIONAL HOLDINGS LLC., priority 2006, published 2009)
# Experiment: in vitro cumulative release from dual drug stent
# Assay type: physicochemical
# Details: insulin and Pimecrolimus eluting stent
# Method: FIG. 6a is a graph showing the in vitro cumulative release of insulin over time from a dual drug stent. FIG. 6b is a graph showing the in vitro cumulative release of pimecrolimus over time from a dual drug stent. A stent for eluting insulin and Pimecrolimus was made substantially according to the description in A above. The stent was loaded with a base region, an insulin drug region, and a Pimecrolimus cap region. The base contained PLGA and/or PEVA; the drug contained insulin 250 μg total drug load (TDL) and PLGA; and the cap contained PEVA, PLGA/PLA-PCL and Pimecrolimus 300 μg TDL, and 6 deposits of PLGA/PLA-PCL. FIGS. 6A and 6B show the release profile of the insulin and Pimecrolimus eluting stent, respectively, over time. As shown in FIG. 6A at least about 50% of the insulin is released in the first 48 hours.
Compound,"release profile of Pimecrolimus (in vitro cumulative release) (Pimecrolimus 300 μg TDL in cap region, FIG. 6B)","insulin released (in vitro cumulative release) (insulin 250 μg TDL in PLGA, in the first 48 hours, FIG. 6A)"
CC[C@@H]1/C=C(\C)C[C@H](C)C[C@H](OC)[C@H]2O[C@@](O)(C(=O)C(=O)N3CCCC[C@H]3C(=O)O[C@H](/C(C)=C/[C@@H]3CC[C@H](Cl)[C@H](OC)C3)[C@H](C)[C@@H](O)CC1=O)[C@H](C)C[C@@H]2OC [Pimecrolimus],high initial release rate followed by a slower prolonged release,–
insulin,–,at least 50%
